From PMC10845205, “Discovery of novel antibacterial agent for the infected wound treatment: all-hydrocarbon stapling optimization of LL-37” (Theranostics, 2024)
Values after ≈ are worked out from the molar mass of the structure shown. Positions of bridges follow the written chain, without caps; N, C: chain ends. Non-standard residues stand in square brackets, D forms with d. Residues, ends and D or L forms follow the SMILES beside them. S5 = C=CCCC[C@](C)(N)C(=O)O

How the values were obtained:
[1] = Hydrophobicity by RP-HPLC retention time; assay type: physicochemical; settings: chromatographic, reverse-phase C18 column, CH3CN/H2O containing 0.1%TFA from 10% to 90% over 20 min, UV 220 nm
Text: To uncover the structure-activity relationship of KR-12 and its stapled derivatives, their physicochemical properties in terms of hydrophobicity, net charge and α-helicity were investigated (Table 2).

[2] = tested on: NIH-3T3 cell; settings: CCK-8, 24 h incubation, nonlinear regression, 3 independent measurements
Method: For development of the stapled KR-12 derivatives to treat bacterial infections in vivo, their cytotoxicity was examined via the CCK-8 assay, which could provide a quantitative assessment of cell viability based on the dehydrogenase activity. The mouse embryonic fibroblast NIH-3T3 cell was selected and incubated with various concentrations of KR-12 and its stapled derivatives.
Mouse embryonic fibroblast cells NIH-3T3 and mouse monocyte macrophage leukemia cells RAW264.7 were obtained from Shanghai Institute of Biochemistry and Cell Biology, Chinese Academy of Sciences. These two cells were maintained in DMEM and RPMI-1640, respectively. Both media were supplemented with 10% FBS and 1% 100 U/mL penicillin-streptomycin solution. Cells were maintained at 37 °C in a 5% CO2 and humidified incubator. Replace the culture medium every day until the cell grows to confluence. Cells were then treated with 0.25% trypsin–EDTA and split using fresh medium for either passage or analysis.
CCK-8 cell counting kit was utilized to examine the cytotoxicity of the linear and stapled peptides. NIH-3T3 cell was planked at a density of 1.5×10^4 cell/well in a 96 - well plate and incubated it for 24 hours at 37 °C. Cells were then treated with different concentrations of peptides in fresh DMEM and incubated for 24 hours before the addition of 10 μL CCK -8 and incubation for a further 1 hour. Measure the absorbance at 450nm using a microplate reader (BioTek, USA) and calculate the percentage of cell viability as: cell viability (%) = (Abspeptide-Absblank)/(Abscontrol-Absblank)×100%, where Abscontrol is the absorbance of cells treated with PBS and Abs blank is the absorbance of the cell-free medium. The data was fitted using the nonlinear regression within

[3] = α-helicity by circular dichroism; assay type: physicochemical; settings: CD, aqueous solution containing 50% trifluoroethanol, from [θ]222, 25 °C
Method: cm2 ∙ dmol−1) after subtracting the background using the following equation:
[θ]=(θ×1000)/( c ×l ×n ), among which, θ is the ellipticity recorded (mdeg), c is the concentration of peptide (M), l is the quartz cuvette’s optical path length (cm), and n is the amino acid number of the peptide. The helicity of peptides was calculated using the following equation: α = [θ]222/[θ]max ×100%, where [θ]222 is the mean residue ellipticity of the peptide at 222 nm; [ θ]max = (−44,000 +250T) (1−k/n), k = 4, n is the number of amino acids, T = 25 °C.
Bacterial strains and culture
Bacterial type stains ATCC 25923 S. aureus, ATCC 12228 S. epidermidis, ATCC […]
aeruginosa and ATCC 13883 K. pneumoniae were obtained from Shanghai Bioresource Collection Center. The bacterial culture medium was purchased from Oxoid and autoclaved according to the instructions from manufacturer. […]
The minimal inhibition concentration (MIC) of the linear and stapled peptides was determined using the microbroth dilution method from the Clinical and Laboratory Standards Institute (CLSI)[2, 3]. […]
10 μL AlamarBlue cell viability reagent (ThermoFisher Scientific, UK) was added to each well, then the plate was re -incubated for a further 2 hours at 37 °C. The MIC was recorded as the minimum concentration of peptides required to completely in hibit bacteria growth. […]

[4] = Serum stability assay; assay type: in vitro ADME, human; settings: human serum, 2 mg/mL peptide in pH 7.4 PBS mixed with serum 1:4, 37 °C, up to 48 h, RP-HPLC UV 220 nm, 3 independent measurements
Text: Maintaining high stability and presenting high compatibility in the complex physiological environment are important criterions for the clinical translation of AMPs. […] The derivatives were mixed with human serum in pH 7.4 PBS, simulating the degradation process of peptides by proteases in vivo. The percentages of intact derivatives were monitored and determined with time according to the PR-HPLC. […]
Serum stability of the linear and stapled peptides was examined by RP -HPLC as previously described. 2 mg/mL peptide solution was prepared in pH 7.4 PBS and incubated with human serum (Gemini, USA) to the final volume ratio of 1:4 at 37 °C.
At various time intervals, 50 μL mixture was added to 50 μL ethanol to terminate the enzymatic hydrolysis. After centrifugation at 10,000 rpm for 10 minutes under 4 °C, […]
the supernatant was collected and analyzed by RP-HPLC, with a UV detector monitored at 220 nm. Record the peak area of the intact peptide and calculate the percentage of remaining peptide based on the integrated area as, Peptide remaining (%) = peak area of remaining peptide/peak area of intact peptide×100%. […]

[5] = tested on: P. aeruginosa; settings: CLSI broth microdilution, MH-II broth, 24 h 37 °C, AlamarBlue; ATCC 27853; 3 independent measurements
[6] = tested on: A. baumannii; settings: CLSI broth microdilution, MH-II broth, 24 h 37 °C, AlamarBlue; ATCC 19606; 3 independent measurements
[7] = tested on: S. aureus; settings: CLSI broth microdilution, MH-II broth, 10^6 CFU/mL, 24 h 37 °C, AlamarBlue; ATCC 25923; 3 independent measurements

SMILES: CC[C@H](C)[C@H](NC(=O)[C@H](CCCNC(=N)N)NC(=O)[C@H](CCCCN)NC(C)=O)C(=O)N[C@H](C(=O)N[C@@H](CCC(N)=O)C(=O)N[C@@H](CCCNC(=N)N)C(=O)N[C@H](C(=O)N[C@@]1(C)CCCC=CCCC[C@@](C)(C(N)=O)NC(=O)[C@H](CC(C)C)NC(=O)[C@H](Cc2ccccc2)NC(=O)[C@H](CC(=O)O)NC1=O)[C@@H](C)CC)C(C)C [KR-12 (K8, R12)] (Ac-KRIVQRI[S5]DFL[S5]-NH2; staple 8-12)
- TR (retention time, measure of hydrophobicity) [1]: 18.2 min
- IC50 against NIH-3T3 cell [2]: 52.8 µg/mL (≈ 33.4 µM)
- α-helicity [3]: 50.0 ± 0.6%
- TD50 (time at which 50% of the peptide is degraded in the presence of serum) [4]: 18.28 h
- MIC P. aeruginosa [5]: 256 µg/mL (≈ 162 µM)
- MIC A. baumannii [6]: 16 µg/mL (≈ 10.1 µM)
- MIC S. aureus [7]: 16 µg/mL (≈ 10.1 µM)
